# Source: PubChem BioAssay AID1053157 (Broad Institute, 2014)
# How the values were obtained:
# Test in all cases: protein binders in hepatoma cell extract, late-stage follow-up, mechanism study for Trib1 inducer project, cell lysate, SILAC, HepG2 extract, LC-MS/MS (AID 1053157)
# Prenylcysteine oxidase 1 = Prenylcysteine oxidase 1 (UniProt Q9UHG3); conditions: SILAC chemoproteomic competition binding
# [1] = molecular target: NADH dehydrogenase [ubiquinone] 1 alpha subcomplex subunit 6 (Homo sapiens) (UniProt P56556); conditions: SILAC chemoproteomic competition binding
# NADH dehydrogenase [ubiquinone] 1 alpha subcomplex subunit 6 (Homo sapiens), sequence (P56556 whole entry, looked up, one chain of several): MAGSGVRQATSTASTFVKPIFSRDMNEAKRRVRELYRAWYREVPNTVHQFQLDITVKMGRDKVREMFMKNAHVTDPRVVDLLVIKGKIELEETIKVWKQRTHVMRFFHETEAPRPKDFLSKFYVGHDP
# [2] = molecular target: Ubiquitin carboxyl-terminal hydrolase 34 (UniProt Q70CQ2); conditions: SILAC chemoproteomic competition binding
# [3] = molecular target: Ferroptosis suppressor protein 1 (Homo sapiens) (UniProt Q9BRQ8); conditions: SILAC chemoproteomic competition binding, Apoptosis-inducing factor
# Ferroptosis suppressor protein 1 (Homo sapiens), sequence (Q9BRQ8 whole entry, looked up): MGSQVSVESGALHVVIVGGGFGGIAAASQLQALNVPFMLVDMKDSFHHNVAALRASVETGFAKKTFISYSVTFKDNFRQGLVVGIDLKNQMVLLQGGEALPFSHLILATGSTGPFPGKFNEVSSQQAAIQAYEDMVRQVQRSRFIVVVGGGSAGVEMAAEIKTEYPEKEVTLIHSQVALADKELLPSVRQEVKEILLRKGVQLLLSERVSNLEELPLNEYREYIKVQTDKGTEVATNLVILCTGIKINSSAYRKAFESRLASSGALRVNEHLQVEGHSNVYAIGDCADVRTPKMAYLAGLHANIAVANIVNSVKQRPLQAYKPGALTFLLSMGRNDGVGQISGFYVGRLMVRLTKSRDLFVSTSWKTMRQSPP
# Ran-binding protein 6 = Ran-binding protein 6 (UniProt O60518); conditions: SILAC chemoproteomic competition binding
# Ran-binding protein 6, sequence (O60518 whole entry, looked up): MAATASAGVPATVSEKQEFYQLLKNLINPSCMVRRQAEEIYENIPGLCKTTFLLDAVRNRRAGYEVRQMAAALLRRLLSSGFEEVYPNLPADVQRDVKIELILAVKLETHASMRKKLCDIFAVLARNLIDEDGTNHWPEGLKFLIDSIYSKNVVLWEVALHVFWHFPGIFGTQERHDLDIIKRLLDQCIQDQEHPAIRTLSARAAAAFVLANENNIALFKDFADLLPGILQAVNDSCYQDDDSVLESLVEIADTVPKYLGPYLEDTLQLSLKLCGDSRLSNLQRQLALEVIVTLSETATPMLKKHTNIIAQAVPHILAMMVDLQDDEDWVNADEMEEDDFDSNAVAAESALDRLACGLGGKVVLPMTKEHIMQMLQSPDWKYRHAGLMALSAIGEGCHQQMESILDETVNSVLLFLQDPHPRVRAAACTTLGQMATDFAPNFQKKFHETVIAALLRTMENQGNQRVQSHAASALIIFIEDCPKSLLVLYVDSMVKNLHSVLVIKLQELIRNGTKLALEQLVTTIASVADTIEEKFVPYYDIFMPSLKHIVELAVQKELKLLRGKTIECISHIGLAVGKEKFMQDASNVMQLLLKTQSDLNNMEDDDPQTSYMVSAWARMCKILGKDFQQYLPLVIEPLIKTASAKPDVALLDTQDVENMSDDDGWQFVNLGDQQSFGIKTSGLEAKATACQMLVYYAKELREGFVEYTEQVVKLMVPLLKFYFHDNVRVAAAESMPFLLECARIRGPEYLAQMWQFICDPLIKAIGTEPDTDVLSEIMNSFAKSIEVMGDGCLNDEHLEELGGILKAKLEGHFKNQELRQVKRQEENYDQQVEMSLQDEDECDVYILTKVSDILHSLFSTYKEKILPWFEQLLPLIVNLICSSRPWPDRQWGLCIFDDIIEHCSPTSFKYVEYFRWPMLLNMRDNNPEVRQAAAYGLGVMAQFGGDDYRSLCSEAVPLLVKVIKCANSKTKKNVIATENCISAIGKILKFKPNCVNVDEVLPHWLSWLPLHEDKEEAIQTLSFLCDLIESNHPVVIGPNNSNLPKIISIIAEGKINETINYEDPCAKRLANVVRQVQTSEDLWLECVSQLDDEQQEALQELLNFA
# Protein zwilch homolog = Protein zwilch homolog (UniProt Q9H900); conditions: SILAC chemoproteomic competition binding
# Protein zwilch homolog, sequence (Q9H900 whole entry, looked up): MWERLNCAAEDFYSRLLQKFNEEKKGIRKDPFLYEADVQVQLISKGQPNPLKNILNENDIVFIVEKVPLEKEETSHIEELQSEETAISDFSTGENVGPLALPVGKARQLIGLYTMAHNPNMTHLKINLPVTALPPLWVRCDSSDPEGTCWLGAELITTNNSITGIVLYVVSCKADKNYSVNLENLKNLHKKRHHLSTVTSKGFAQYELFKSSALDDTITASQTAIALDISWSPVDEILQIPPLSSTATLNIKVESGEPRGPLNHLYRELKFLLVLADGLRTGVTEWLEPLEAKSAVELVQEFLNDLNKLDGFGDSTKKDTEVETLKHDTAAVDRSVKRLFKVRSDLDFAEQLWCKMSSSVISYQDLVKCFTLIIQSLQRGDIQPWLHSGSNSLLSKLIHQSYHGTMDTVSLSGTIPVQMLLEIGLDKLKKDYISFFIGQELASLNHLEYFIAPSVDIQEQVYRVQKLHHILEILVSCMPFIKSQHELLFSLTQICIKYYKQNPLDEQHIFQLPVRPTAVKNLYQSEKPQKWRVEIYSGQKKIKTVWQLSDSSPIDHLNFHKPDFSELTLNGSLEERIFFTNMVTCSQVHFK
# Prenylcysteine oxidase 1, sequence (Q9UHG3 whole entry, looked up): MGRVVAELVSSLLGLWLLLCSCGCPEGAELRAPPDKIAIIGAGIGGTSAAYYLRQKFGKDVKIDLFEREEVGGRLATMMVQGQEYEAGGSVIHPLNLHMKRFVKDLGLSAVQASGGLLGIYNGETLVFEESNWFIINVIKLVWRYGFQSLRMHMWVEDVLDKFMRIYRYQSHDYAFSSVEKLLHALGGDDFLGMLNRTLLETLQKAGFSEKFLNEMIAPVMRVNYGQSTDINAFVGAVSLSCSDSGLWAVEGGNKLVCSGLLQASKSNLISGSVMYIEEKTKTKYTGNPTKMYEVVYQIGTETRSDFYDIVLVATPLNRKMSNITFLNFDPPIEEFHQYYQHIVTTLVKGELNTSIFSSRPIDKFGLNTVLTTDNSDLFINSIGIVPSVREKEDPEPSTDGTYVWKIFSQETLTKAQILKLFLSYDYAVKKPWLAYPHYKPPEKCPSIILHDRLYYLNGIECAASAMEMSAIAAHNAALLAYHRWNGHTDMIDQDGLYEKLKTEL
smiles,measurement,setting,value
CN1C(=O)c2cc(NC(=O)c3ccc(C(F)(F)F)cc3)ccc2OC[C@@H]2O[C@H](CC(=O)NC3Cc4ccccc4C3)CC[C@@H]21,Kd,Prenylcysteine oxidase 1,10.2 µM
same,Kd,[1],29.3 µM
same,Kd,[2],25.7 µM
same,Kd,[3],26.7 µM
same,Kd,Ran-binding protein 6,25.6 µM
same,Kd,Protein zwilch homolog,18.4 µM
